{"source": "ChEMBL document CHEMBL1201862", "about": "“PubChem BioAssay data set” (2004)", "assay_in_all_cases": "NCI tumour cell line growth inhibition, 48 h", "key": {"SK-OV-3": {"system": "SK-OV-3"}, "A498": {"system": "A498"}, "MDA-MB-435": {"system": "MDA-MB-435"}, "NCI-H522": {"system": "NCI-H522"}, "SN12C": {"system": "SN12C"}, "OVCAR-3": {"system": "OVCAR-3"}, "CAKI-1": {"system": "CAKI-1"}, "A549": {"system": "A549"}, "CCRF-CEM": {"system": "CCRF-CEM"}, "786-0": {"system": "786-0"}, "SF-295": {"system": "SF-295"}, "Hs-578T": {"system": "Hs-578T"}, "HCT-116": {"system": "HCT-116"}, "OVCAR-8": {"system": "OVCAR-8"}, "HCT-15": {"system": "HCT-15"}, "HOP-62": {"system": "HOP-62"}, "U-251": {"system": "U-251"}, "LOX IMVI": {"system": "LOX IMVI"}, "UACC-62": {"system": "UACC-62"}}, "note": "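96-well plates; 48 h exposure; 5 concentrations. Endpoints by linear interpolation between flanking doses. Not reached: highest tested concentration assigned. GI50: concentration for 50% inhibition of growth.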 Active and inactive are the calls of the source. Cut-off read from the data, not from the text of the source: active = GI50 up to about 1.1 µM and inactive = higher."}
{"smiles": "N#CC1C(=O)NC2=C(CCOc3c2ccc2ccccc32)C1c1ccc(F)cc1", "note": "(stereo unspecified)", "values": [{"measurement": "GI50", "setting": "SK-OV-3", "result": "24.8 µM (inactive)"}, {"measurement": "GI50", "setting": "A498", "result": "19.7 µM (inactive)"}, {"measurement": "GI50", "setting": "MDA-MB-435", "result": "40.9 µM (inactive)"}, {"measurement": "GI50", "setting": "NCI-H522", "result": "37.1 µM (inactive)"}, {"measurement": "GI50", "setting": "SN12C", "result": "10.8 µM (inactive)"}, {"measurement": "GI50", "setting": "OVCAR-3", "result": "21.1 µM (inactive)"}, {"measurement": "GI50", "setting": "CAKI-1", "result": "31.5 µM (inactive)"}, {"measurement": "GI50", "setting": "A549", "result": "25.2 µM (inactive)"}, {"measurement": "GI50", "setting": "CCRF-CEM", "result": "28.4 µM (inactive)"}, {"measurement": "GI50", "setting": "786-0", "result": "17.7 µM (inactive)"}, {"measurement": "GI50", "setting": "SF-295", "result": "20.4 µM (inactive)"}, {"measurement": "GI50", "setting": "Hs-578T", "result": "16.2 µM (inactive)"}, {"measurement": "GI50", "setting": "HCT-116", "result": "14 µM (inactive)"}, {"measurement": "GI50", "setting": "OVCAR-8", "result": "33.3 µM (inactive)"}, {"measurement": "GI50", "setting": "HCT-15", "result": 38.5, "unit": "µM"}, {"measurement": "GI50", "setting": "HOP-62", "result": "18.5 µM (inactive)"}, {"measurement": "GI50", "setting": "U-251", "result": "12.3 µM (inactive)"}]}
{"smiles": "O=c1c2ccccc2nc(Cc2nc(-c3ccc(Cl)cc3)cs2)n1-c1ccc(Cl)cc1", "values": [{"measurement": "GI50", "setting": "SK-OV-3", "result": "> 100 µM (inactive)"}, {"measurement": "GI50", "setting": "A498", "result": "68.1 µM (inactive)"}, {"measurement": "GI50", "setting": "MDA-MB-435", "result": "46.3 µM (inactive)"}, {"measurement": "GI50", "setting": "NCI-H522", "result": "> 100 µM (inactive)"}, {"measurement": "GI50", "setting": "LOX IMVI", "result": "50.2 µM (inactive)"}, {"measurement": "GI50", "setting": "OVCAR-3", "result": "94.2 µM (inactive)"}, {"measurement": "GI50", "setting": "CAKI-1", "result": "> 100 µM (inactive)"}, {"measurement": "GI50", "setting": "A549", "result": "50.6 µM (inactive)"}, {"measurement": "GI50", "setting": "CCRF-CEM", "result": "17.6 µM (inactive)"}, {"measurement": "GI50", "setting": "786-0", "result": "81.3 µM (inactive)"}, {"measurement": "GI50", "setting": "SF-295", "result": "44.4 µM (inactive)"}, {"measurement": "GI50", "setting": "Hs-578T", "result": "> 100 µM (inactive)"}, {"measurement": "GI50", "setting": "HCT-116", "result": "37.2 µM (inactive)"}, {"measurement": "GI50", "setting": "OVCAR-8", "result": "82.6 µM (inactive)"}, {"measurement": "GI50", "setting": "HCT-15", "result": 31.5, "unit": "µM"}, {"measurement": "GI50", "setting": "HOP-62", "result": "> 100 µM (inactive)"}, {"measurement": "GI50", "setting": "U-251", "result": "54.5 µM (inactive)"}, {"measurement": "GI50", "setting": "UACC-62", "result": "5.78 µM (inactive)"}]}
{"smiles": "C=C(C)C(=O)O[C@H]1CC2=CC(CC(C)=C[C@H]3OC(=O)C(=C)C13)OC2=O", "note": "(stereo partly specified)", "values": [{"measurement": "GI50", "setting": "A498", "result": "35.8 µM (inactive)"}, {"measurement": "GI50", "setting": "MDA-MB-435", "result": "29.3 µM (inactive)"}, {"measurement": "GI50", "setting": "NCI-H522", "result": "2.53 µM (inactive)"}, {"measurement": "GI50", "setting": "LOX IMVI", "result": "21 µM (inactive)"}, {"measurement": "GI50", "setting": "SN12C", "result": "22.1 µM (inactive)"}, {"measurement": "GI50", "setting": "OVCAR-3", "result": "24.7 µM (inactive)"}, {"measurement": "GI50", "setting": "CAKI-1", "result": "17.2 µM (inactive)"}, {"measurement": "GI50", "setting": "A549", "result": "> 100 µM (inactive)"}, {"measurement": "GI50", "setting": "CCRF-CEM", "result": "4.74 µM (inactive)"}, {"measurement": "GI50", "setting": "786-0", "result": "9.08 µM (inactive)"}, {"measurement": "GI50", "setting": "SF-295", "result": "> 100 µM (inactive)"}, {"measurement": "GI50", "setting": "Hs-578T", "result": "99.1 µM (inactive)"}, {"measurement": "GI50", "setting": "HCT-116", "result": "10.8 µM (inactive)"}, {"measurement": "GI50", "setting": "OVCAR-8", "result": "35.8 µM (inactive)"}, {"measurement": "GI50", "setting": "HCT-15", "result": 10.8, "unit": "µM"}, {"measurement": "GI50", "setting": "U-251", "result": "> 100 µM (inactive)"}, {"measurement": "GI50", "setting": "UACC-62", "result": "17.4 µM (inactive)"}]}
{"smiles": "COc1cc(C2SC(=N)Nc3c2c(C)nn3C(=O)c2ccccc2O)ccc1O", "note": "(stereo unspecified)", "values": [{"measurement": "GI50", "setting": "SK-OV-3", "result": "> 2.17 µM (inactive)"}, {"measurement": "GI50", "setting": "A498", "result": "4.51 µM (inactive)"}, {"measurement": "GI50", "setting": "MDA-MB-435", "result": "1.54 µM (inactive)"}, {"measurement": "GI50", "setting": "NCI-H522", "result": "> 3.84 µM (inactive)"}, {"measurement": "GI50", "setting": "LOX IMVI", "result": "1.47 µM (inactive)"}, {"measurement": "GI50", "setting": "SN12C", "result": "> 2.64 µM (inactive)"}, {"measurement": "GI50", "setting": "OVCAR-3", "result": "> 2.93 µM (inactive)"}, {"measurement": "GI50", "setting": "CAKI-1", "result": "> 2.42 µM (inactive)"}, {"measurement": "GI50", "setting": "A549", "result": "1.36 µM (inactive)"}, {"measurement": "GI50", "setting": "CCRF-CEM", "result": "2.01 µM (inactive)"}, {"measurement": "GI50", "setting": "786-0", "result": "> 2.33 µM (inactive)"}, {"measurement": "GI50", "setting": "SF-295", "result": "1.28 µM (inactive)"}, {"measurement": "GI50", "setting": "Hs-578T", "result": "0.461 µM (active)"}, {"measurement": "GI50", "setting": "OVCAR-8", "result": "> 2.33 µM (inactive)"}, {"measurement": "GI50", "setting": "HCT-15", "result": "> 2.31", "unit": "µM"}, {"measurement": "GI50", "setting": "HOP-62", "result": "> 2.61 µM (inactive)"}, {"measurement": "GI50", "setting": "U-251", "result": "1.74 µM (inactive)"}, {"measurement": "GI50", "setting": "UACC-62", "result": "1.15 µM (inactive)"}]}
{"smiles": "O=[N+]([O-])/C(C(Cl)=C(Cl)Cl)=C(\\NCc1ccccc1)Sc1ccccc1", "values": [{"measurement": "GI50", "setting": "SK-OV-3", "result": "34 µM (inactive)"}, {"measurement": "GI50", "setting": "A498", "result": "25.9 µM (inactive)"}, {"measurement": "GI50", "setting": "MDA-MB-435", "result": "19.4 µM (inactive)"}, {"measurement": "GI50", "setting": "LOX IMVI", "result": "13.7 µM (inactive)"}, {"measurement": "GI50", "setting": "SN12C", "result": "35.2 µM (inactive)"}, {"measurement": "GI50", "setting": "OVCAR-3", "result": "17.6 µM (inactive)"}, {"measurement": "GI50", "setting": "CAKI-1", "result": "37.3 µM (inactive)"}, {"measurement": "GI50", "setting": "A549", "result": "30.2 µM (inactive)"}, {"measurement": "GI50", "setting": "CCRF-CEM", "result": "32 µM (inactive)"}, {"measurement": "GI50", "setting": "786-0", "result": "35.1 µM (inactive)"}, {"measurement": "GI50", "setting": "SF-295", "result": "20.6 µM (inactive)"}, {"measurement": "GI50", "setting": "Hs-578T", "result": "15.1 µM (inactive)"}, {"measurement": "GI50", "setting": "HCT-116", "result": "32.4 µM (inactive)"}, {"measurement": "GI50", "setting": "OVCAR-8", "result": "16.9 µM (inactive)"}, {"measurement": "GI50", "setting": "HCT-15", "result": 17.3, "unit": "µM"}, {"measurement": "GI50", "setting": "HOP-62", "result": "24 µM (inactive)"}, {"measurement": "GI50", "setting": "U-251", "result": "32.3 µM (inactive)"}, {"measurement": "GI50", "setting": "UACC-62", "result": "30.4 µM (inactive)"}]}
{"smiles": "C=CCN(C(=O)OC(C)(C)C)C1=CC2C(C)=CN(S(=O)(=O)c3ccccc3)C2C(OCc2ccccc2)=C1", "note": "(stereo unspecified)", "values": [{"measurement": "GI50", "setting": "SK-OV-3", "result": "> 100 µM (inactive)"}, {"measurement": "GI50", "setting": "MDA-MB-435", "result": "> 100 µM (inactive)"}, {"measurement": "GI50", "setting": "NCI-H522", "result": "> 100 µM (inactive)"}, {"measurement": "GI50", "setting": "LOX IMVI", "result": "> 100 µM (inactive)"}, {"measurement": "GI50", "setting": "SN12C", "result": "> 100 µM (inactive)"}, {"measurement": "GI50", "setting": "OVCAR-3", "result": "> 100 µM (inactive)"}, {"measurement": "GI50", "setting": "CAKI-1", "result": "> 100 µM (inactive)"}, {"measurement": "GI50", "setting": "A549", "result": "> 100 µM (inactive)"}, {"measurement": "GI50", "setting": "CCRF-CEM", "result": "> 100 µM (inactive)"}, {"measurement": "GI50", "setting": "786-0", "result": "> 100 µM (inactive)"}, {"measurement": "GI50", "setting": "SF-295", "result": "> 100 µM (inactive)"}, {"measurement": "GI50", "setting": "Hs-578T", "result": "> 100 µM (inactive)"}, {"measurement": "GI50", "setting": "HCT-116", "result": "54 µM (inactive)"}, {"measurement": "GI50", "setting": "OVCAR-8", "result": "> 100 µM (inactive)"}, {"measurement": "GI50", "setting": "HCT-15", "result": "> 100", "unit": "µM"}, {"measurement": "GI50", "setting": "HOP-62", "result": "> 100 µM (inactive)"}, {"measurement": "GI50", "setting": "U-251", "result": "> 100 µM (inactive)"}, {"measurement": "GI50", "setting": "UACC-62", "result": "> 100 µM (inactive)"}]}
